Data from paper PMC3282010 (The AAPS Journal, 2011).
Read-outs that look alike come from different tables or passages of the source. Marks after values point to notes of the source that are not given here.

Experiments:
[1] = cited from earlier work
clinical [2] = details: human, plasma, oral, AUCτ, part A, macitentan + Cs, 384–408 h (day 17 of period 2), steady-state, geometric mean (95% CI)
OATP1B3 [3] = biological target: T1, OATP1B3 (Homo sapiens, UniProt Q9NPD5)
OATP1B3 [4] = biological target: T1, OATP1B3; details: for Uptake into OATP1B3 over-expressing cells: 3 μM, incubation for 40 s, 37°C, mean ± SD; for Difference in uptake rate between wild-type and OATP over-expressing cells: OATP1B3, different concentrations tested (Fig. 6)
OATP1B1 [5] = biological target: T2, OATP1B1 (Homo sapiens, UniProt Q9Y6L6)
T2 sequence (Q9Y6L6 whole entry): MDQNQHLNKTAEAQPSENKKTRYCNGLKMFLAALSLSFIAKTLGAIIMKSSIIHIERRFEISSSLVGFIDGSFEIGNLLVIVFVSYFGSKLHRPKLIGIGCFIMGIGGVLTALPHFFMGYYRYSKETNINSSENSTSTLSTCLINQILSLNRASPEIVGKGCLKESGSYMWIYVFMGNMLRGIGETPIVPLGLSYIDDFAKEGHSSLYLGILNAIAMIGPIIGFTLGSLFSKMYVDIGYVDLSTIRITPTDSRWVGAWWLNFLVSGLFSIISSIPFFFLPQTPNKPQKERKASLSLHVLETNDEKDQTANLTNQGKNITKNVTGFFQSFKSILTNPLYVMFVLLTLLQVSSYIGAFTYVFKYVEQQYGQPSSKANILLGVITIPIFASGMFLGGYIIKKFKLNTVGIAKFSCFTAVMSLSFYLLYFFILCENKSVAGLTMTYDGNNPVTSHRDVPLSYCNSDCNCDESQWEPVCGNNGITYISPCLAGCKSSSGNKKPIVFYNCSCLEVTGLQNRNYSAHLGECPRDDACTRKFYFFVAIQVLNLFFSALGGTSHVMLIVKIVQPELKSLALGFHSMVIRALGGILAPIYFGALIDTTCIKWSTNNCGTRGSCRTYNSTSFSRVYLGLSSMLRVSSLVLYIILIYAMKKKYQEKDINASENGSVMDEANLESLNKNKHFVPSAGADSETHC

[6] = cited from earlier work; remark: listed apart in the source
[7] = for Total plasma concentration at steady-state: healthy subjects, 10-mg once-daily regimen; for Ratio of geometric means of AUCτ / Ratio of geometric means of C tr: macitentan + Cs vs macitentan; for Ratio of geometric means of AUCτ: AUC(384h-408h)/AUC(96h-120h); for Ratio of geometric means of C tr: period 2 versus period 1
[8] = system: endothelin ETA and ETB receptor; details: dual ERA; cited from earlier work
OATP1B1 [9] = biological target: T2, OATP1B1; details: for Uptake into OATP1B1 over-expressing cells: 3 μM, incubation for 40 s, 37°C, mean ± SD; for Difference in uptake rate between wild-type and OATP over-expressing cells: OATP1B1, different concentrations tested (Fig. 6)
wild-type CHO cells = details: 3 μM, incubation for 40 s, 37°C; mean ± SD
[10] = human, in vivo
clinical [11] = details: human, in vivo, AUCτ
OATP1B1 [12] = biological target: T2, OATP1B1; details: OATP inhibition IC50 versus free plasma concentration
[13] = strong CYP3A4 inhibitor; cited from earlier work
[14] = in humans, after the first day of co-administration of Cs; cited from earlier work
[15] = macitentan + Cs versus macitentan alone
[16] = part A, macitentan + Cs, 384–408 h (day 17 of period 2), geometric mean (95% CI)
[17] = part A, macitentan alone, 96–120 h (day 5 of period 1), geometric mean (95% CI)

T1 sequence (Q9NPD5 whole entry): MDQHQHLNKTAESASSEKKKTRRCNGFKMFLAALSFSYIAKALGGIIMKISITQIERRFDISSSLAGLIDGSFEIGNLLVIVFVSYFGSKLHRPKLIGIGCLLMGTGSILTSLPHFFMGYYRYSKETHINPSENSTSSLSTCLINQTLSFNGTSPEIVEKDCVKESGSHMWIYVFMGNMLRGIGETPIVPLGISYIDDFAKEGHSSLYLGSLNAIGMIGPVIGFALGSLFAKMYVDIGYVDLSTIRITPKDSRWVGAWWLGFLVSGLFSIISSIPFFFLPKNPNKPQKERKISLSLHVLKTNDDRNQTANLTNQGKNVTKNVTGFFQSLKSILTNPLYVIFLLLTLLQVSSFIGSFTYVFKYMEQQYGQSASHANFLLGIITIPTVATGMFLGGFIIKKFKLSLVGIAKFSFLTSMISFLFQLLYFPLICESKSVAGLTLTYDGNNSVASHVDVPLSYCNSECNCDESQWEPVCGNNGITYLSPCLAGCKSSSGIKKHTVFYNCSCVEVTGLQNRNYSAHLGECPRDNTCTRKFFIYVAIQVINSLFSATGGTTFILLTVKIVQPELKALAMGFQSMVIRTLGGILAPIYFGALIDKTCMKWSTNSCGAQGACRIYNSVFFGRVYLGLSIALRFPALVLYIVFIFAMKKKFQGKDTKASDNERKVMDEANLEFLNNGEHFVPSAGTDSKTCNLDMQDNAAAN

Row | AUC (clinical [2]) [ng·h/mL] | Uptake into OATP1B3 over-expressing cells (OATP1B3 [4]) [pmol/mg] | Difference in uptake rate between wild-type and OATP over-expressing cells (OATP1B3 [4]) | IC50 (OATP1B1 [5]) [µM] | Total plasma concentration at steady-state [7] | Ratio of geometric means of AUCτ ([7]; part A) | Ratio of geometric means of C tr ([7]; part A) | C tr [7, 16] | C tr [7, 17] | Uptake into OATP1B1 over-expressing cells (OATP1B1 [9]) [pmol/mg] | Difference in uptake rate between wild-type and OATP over-expressing cells (OATP1B1 [9]) | Uptake into wild-type cells (wild-type CHO cells) [pmol/mg] | Decrease of steady-state AUCτ in the presence of rifampin [10] [%] | Ratio of geometric means of AUCτ [10] | Ratio of geometric means of C tr [10] | Free steady-state plasma concentration lower than the lowest IC50 determined (OATP1B1 [12]) | Increase of steady-state AUCτ in the presence of Cs [7, 15] [%] | SMILES | Binding to human plasma proteins in vitro [1] [%] | elimination half-life (t 1/2) ([6]; in humans) | also measured
1 | 16400 | 288 ± 10 | No marked difference | 19.9 ± 1.4 | ~1.5 µM | 0.97 ng·h/mL | 1.02 ng·h/mL | 640 (550, 745) ng/mL | 626 (547, 717) ng/mL | 237 ± 7 | No marked difference | 214 ± 11 | 0.3 | 1.00 ng·h/mL | 0.83^a ng·h/mL | around 2,490 fold |  | NS(=O)(=O)Nc1ncnc(OCCOc2ncc(Br)cn2)c1-c1ccc(Br)cc1 [ACT-132577] | 99.5 | approximately 48 h | IC50 (OATP1B3 [3]): 51.6 ± 3 µM; Systemic exposure in humans relative to macitentan (higher) ([7]; in humans): 2.5 fold; Decrease of steady-state AUCτ in the presence of Cs [7, 15]: 3%; Potency in vitro relative to macitentan (less potent) [8]: approximately five-fold; AUCτ [10]: 14,798 (13,216, 16,569) ng·h/mL; AUC (clinical [11]): 14800 ng·h/mL
2 |  |  |  |  |  | 1.07^a ng·h/mL | 1.12^a ng·h/mL | 20 (15, 26) ng/mL | 17 (13, 24) ng/mL |  |  |  | 64 | 0.36^a ng·h/mL | 0.14^a ng·h/mL |  | 7 | CCCNS(=O)(=O)Nc1ncnc(OCC(=O)O)c1-c1ccc(Br)cc1 [ACT-373898] |  |  | AUCτ ([7]; part A, macitentan + Cs, 384–408 h (day 17 of period 2), steady-state, plasma, geometric mean (95% CI)): 568 (432, 747) ng·h/mL
3 | 7560 | 387 ± 11 | No marked difference | 6.3 ± 0.7 | approximately 0.63 μM | 1.10^a ng·h/mL | 1.38^a ng·h/mL | 220 (176, 274) ng/mL | 159 (121, 209) ng/mL | 362 ± 6 | No marked difference | 346 ± 3 | 79 | 0.21^a ng·h/mL | 0.07^a ng·h/mL | around 2,490 fold | 10 | CCCNS(=O)(=O)Nc1ncnc(OCCOc2ncc(Br)cn2)c1-c1ccc(Br)cc1 [Macitentan] | 99.6 | approximately 16 h | Time to maximum plasma concentrations after administration ([6]; in humans): approximately 8 h; Tolerability ([6]; single-ascending dose study, doses of up to 300 mg): well tolerated; Tolerability ([7]; co-administered with Cs, healthy male subjects): well tolerated; Subjects affected by treatment-emergent AEs ([7]; part A, period 1 (macitentan alone), 10 subjects): 30%; Increase of AUC0–∞ in the presence of ketoconazole [13]: approximately two-fold; Reduction in exposure in the presence of rifampin [10]: approximately four-fold; Tolerability [10]: well tolerated
4 |  |  |  |  |  |  |  |  |  |  |  |  |  |  |  |  |  | COc1ccccc1Oc1c(NS(=O)(=O)c2ccc(C(C)(C)C)cc2)nc(-c2ncccn2)nc1OCCO [bosentan] |  |  | Increase in exposure in the presence of Cs [14]: 30 fold
